Measured values taken from paper PMC6688371, “Effect of the inhaled PDE4 inhibitor CHF6001 on biomarkers of inflammation in COPD” (Respiratory Research, 2019).

Test system: markers of inflammation in blood
Assay: Markers of inflammation in blood (serum/plasma)
Format: in vivo, human
Details: Day 32, geometric mean (%CV)
Protocol: Induced sputum was collected pre-dose on Day 1 of each treatment period (for the first treatment period, the sample could be collected up to 10 days prior to Day 1), and 2 h post-dose on Days 20, 26 and 32 (see the Additional file 1 for further detail on sputum and blood analysis methods). Blood samples were taken pre-dose on Day 1, and pre-dose and at 30 min, and 1, 1.5, 2, 3, 4, 6, 8 and 12 h post-dose on Day 32. Other pre-dose assessments on Days 1 and 32 were spirometry (forced expiratory volume in 1 s [FEV1] and forced vital capacity [FVC]), forced oscillometry, and COPD Assessment Test (CAT), with Baseline Dyspnea Index recorded on Day 1 and Transition Dyspnea Index (TDI) on Day 32. Central and peripheral airways mechanics were assessed using forced oscillometry, with the following values determined: inspiratory and expiratory resistance (at 5 and 19 Hz), inspiratory and expiratory reactance, tidal expiratory flow limitation and the percentage of flow limited breaths.
A patient had to have a minimum of one acceptable sputum sample on Day 20, 26 or 32 to be included in the sputum biomarker evaluation for that treatment period, with the available cell count and biomarker data averaged for each patient. The mean change from baseline (pre-dose on Day 1 of each treatment period) was then compared between treatments using an analysis of covariance (ANCOVA) that included treatment, patient and period as fixed effects, and baseline values as covariate. The mean change from baseline to Day 32 for biomarkers in blood were analysed using the same model as for sputum data. All data were log-transformed before analysis, and the results are presented as ratio of geometric means.
Effect of CHF6001 on inflammatory biomarkers – Additional file 1 […]
Analysis of biomarkers and CHF6001 concentration in blood
The levels of inflammatory biomarkers were evaluated from blood collected at 2 h post-dose […]
• Ex-vivo lipopolysaccharide (LPS) stimulated TNFα: 1.5 mL of blood collected into sodium heparin tubes was stimulated with 30 µL of LPS 5 µg/mL, incubated at 37C for 23 h, centrifuged at 2000 g for 10 min at 4C and plasma transferred to the central laboratory at –60 to –90C for analysis.
• Fibrinogen and MMP-3 and -9: Blood was collected into lithium heparin tubes, centrifuged at 2500 g for 15 min at 4C, and plasma transferred to the central […]
• IL-6, -16, and -18, CXCL8, TNFα, MCP-1, MIP 1β, club cell secretory protein 16 (CC16), C-reactive protein (CRP) and surfactant protein D (SP-D): Blood was collected into serum separator tubes and kept at room temperature for 30 –60 minutes to allow clotting. Samples were then centrifuged at 2000 g for 5 min at +4C and serum transferred to the central laboratory at –60 to –90C for analysis.
Levels of biomarkers were assessed as follows:
• Fibrinogen: K-Assay Fibrinogen kit, automated on the Beckman AU640 .
• IL-18, and MMP-3 and -9: PheraSTAR ELISA.
• IL-6, CXCL8, TNFα, MCP-1 and MIP-1β: Meso Scale Diagnostics v -PLEX Plus kit .
• CC16: Biovendor Elisa Kit, Oxford Biosystems.
• CRP: Randox Reagents, automated on the Beckman AU640 .
• IL-16: Meso Scale Diagnostics Sector Imager 6000.
• Serum SP-D: Sandwich Immunoassay, using PheraSTAR Plate Reader .
Validation procedures again followed those outlined for the analysis of biomarkers above. All […]
concentrations of biomarkers in human serum or plasma from regulatory studies.
Blood for the pharmacokinetic analysis was collected pre-dose and at 30 min, and 1, 1.5, 2, 3, 4, 6, 8 and 12 h post-dose on Day 32 of each treatment period. Samples were centrifuged at 2000 g for 15 min at 4C, with the resulting plasma shipped to the central laboratory at –60

Structure (SMILES): CS(=O)(=O)Nc1ccc(C(=O)O[C@@H](Cc2c(Cl)c[n+]([O-])cc2Cl)c2ccc(OC(F)F)c(OCC3CC3)c2)cc1OCC1CC1 [CHF6001]
- C-X-C motif chemokine ligand 8 in blood, post-baseline (800 µg BID): 13.565 (36.9)
- C-reactive protein in blood, post-baseline (800 µg BID): 3.4462 (167.3) mg/L
- Club cell secretory protein 16 in blood, post-baseline (800 µg BID): 4.6249 (67.5) ng/mL
- Fibrinogen in blood, post-baseline (800 µg BID): 327.0 (47.5) mg/dL
- Interleukin 6 in blood, post-baseline (800 µg BID): 1.8740 (63.9) pg/mL
- Interleukin 16 in blood, post-baseline (800 µg BID): 183.95 (33.6) pg/mL
- Interleukin 18 in blood, post-baseline (800 µg BID): 236.46 (43.0) pg/mL
- Macrophage inflammatory protein 1β in blood, post-baseline (800 µg BID): 107.36 (35.2) pg/mL
- Matrix metalloproteinase 3 in blood, post-baseline (800 µg BID): 19.356 (66.9) ng/mL
- Matrix metalloproteinase 9 in blood, post-baseline (800 µg BID): 61.69 (88.4) ng/mL
- Monocyte chemotactic protein 1 in blood, post-baseline (800 µg BID): 308.2 (33.3) pg/mL
- Serum surfactant protein D, post-baseline (800 µg BID): 168.55 (67.6) ng/mL
- Tumour necrosis factor α in serum, post-baseline (800 µg BID): 1.9453 (31.8) pg/mL
- C-X-C motif chemokine ligand 8 in blood, post-baseline (1600 µg BID): 13.014 (42.2)
- C-reactive protein in blood, post-baseline (1600 µg BID): 3.7389 (135.5) mg/L
- Club cell secretory protein 16 in blood, post-baseline (1600 µg BID): 4.5701 (75.3) ng/mL
- Fibrinogen in blood, post-baseline (1600 µg BID): 367.8 (54.2) mg/dL
- Interleukin 6 in blood, post-baseline (1600 µg BID): 1.9386 (88.8) pg/mL
- Interleukin 16 in blood, post-baseline (1600 µg BID): 178.08 (30.4) pg/mL
- Interleukin 18 in blood, post-baseline (1600 µg BID): 252.43 (40.2) pg/mL
- Macrophage inflammatory protein 1β in blood, post-baseline (1600 µg BID): 113.88 (44.2) pg/mL
- Matrix metalloproteinase 3 in blood, post-baseline (1600 µg BID): 19.565 (53.9) ng/mL
- Matrix metalloproteinase 9 in blood, post-baseline (1600 µg BID): 52.19 (89.7) ng/mL
- Monocyte chemotactic protein 1 in blood, post-baseline (1600 µg BID): 323.6 (31.8) pg/mL
- Serum surfactant protein D, post-baseline (1600 µg BID): 167.66 (66.1) ng/mL
- Tumour necrosis factor α in serum, post-baseline (1600 µg BID): 1.9302 (35.7) pg/mL
